From patent publication US4279897A, “(Alkoxycarbonyl)(alkyl)aminosulfenyl derivatives of phosphoramidothioate esters” (priority 1979, dated 1981)

Columns and labels:
[1] = tested on: house flies, Musca domestica; test: Topical insecticidal activity against house flies (percent mortality 24 h after application, LD50); format: in vivo; conditions: read-out: House fly LD50
Method: Representative compounds of the invention were tested for insecticidal activity against house flies, Musca domestica. Stock 1% concentrated solutions of each of the test compounds were made in acetone, and such solutions diluted with acetone to a concentration of 0.001-0.1%. House flies were treated topically on the notum by 1 μl of each of the diluted acetone solutions and percent mortality was counted 24 hours after application.

[2] = Mammalian toxicity, oral, Swiss white mice (LD50); format: in vivo; conditions: mouse, in vivo; oral, corn oil carrier, Swiss white mice
Method: (§1) Mammalian toxicity was determined against Swiss white mice. The test compound was applied orally using corn oil as the carrier.

Swiss white mice = test: Mammalian toxicity, oral, Swiss white mice (LD50); format: in vivo; conditions: mouse oral, from Table II
Method: as §1

insects = conditions: in vivo; cited from earlier work
Water solubility = format: physicochemical
mammals = conditions: in vivo; cited from earlier work

| SMILES | LD50 [1] [mg/kg] | LD50 [2] [mg/kg] | mammalian toxicity compared with methamidophos (Swiss white mice) | insecticidal activity / toxicity to insects (background) (insects) | water solubility (Water solubility) | mammalian toxicity (background) (mammals) |
| --- | --- | --- | --- | --- | --- | --- |
| CCN(SNP(=O)(OC)SC)C(=O)OC (centres unmarked) [Compound 1, O,S-dimethyl N-(N'-methoxycarbonyl-N'-ethylaminosulfenyl)phosphoramidothioate] | 2.8 | 30 |  |  |  |  |
| CCCCCCOC(=O)N(CC)SNP(=O)(OC)SC (centres unmarked) [Compound 2] | 3.8 | 34 |  |  |  |  |
| CCCN(SNP(=O)(OC)SC)C(=O)OC (centres unmarked) [Compound 3] | 1.6 |  |  |  |  |  |
| CCCN(SNP(=O)(OC)SC)C(=O)OCC (centres unmarked) [Compound 4] | 2 |  |  |  |  |  |
| CCCOC(=O)N(CCC)SNP(=O)(OC)SC (centres unmarked) [Compound 5] | 1.9 | 36 |  |  |  |  |
| CCOC(=O)N(SNP(=O)(OC)SC)C(C)C (centres unmarked) [Compound 6, O,S-Dimethyl N-[N'-(ethoxycarbonyl)-N'-(isopropylaminosulfenyl)]phosphoramidothioate] | 1.9 | 50 | lower |  |  |  |
| COP(=O)(NSN(C(=O)OC(C)C)C(C)C)SC (centres unmarked) [Compound 7, O,S-Dimethyl N-[N'-(isopropoxycarbonyl)-N'-(isopropylaminosulfenyl)]phosphoramidothioate] | 2.7 |  |  |  |  |  |
| CCCOC(=O)N(SNP(=O)(OC)SC)C(C)C (centres unmarked) [Compound 8, O,S-dimethyl N-(N'-propoxycarbonyl-N'-isopropylaminosulfenyl)phosphoramidothioate] | 2.5 | 50 | lower |  |  |  |
| CCOC(=O)N(SNP(=O)(OC)SC)C(C)(C)C (centres unmarked) [Compound 9, O,S-Dimethyl N-[N'-(ethoxycarbonyl)-N'-(tert.-butylaminosulfenyl)]phosphoramidothioate] | 2.5 | 50 | lower |  |  |  |
| CCCOC(=O)N(SNP(=O)(OC)SC)C(C)(C)C (centres unmarked) [Compound 10] | 1.6 | 50 | lower |  |  |  |
| COP(N)(=O)SC (centres unmarked) [Methamidophos, O,S-dimethyl phosphoramidothiote] |  |  |  | high toxicity to both insects and mammals | freely soluble in water | high toxicity to both insects and mammals |
| COP(=O)(NC(C)=O)SC (centres unmarked) [acephate] |  |  |  | high insecticidal activity |  | relatively low mammalian toxicity |
